From patent US4382939A, “3-[2-(Mono-and dialkylamino)propyl]-1,2,3,4-tetrahydro-5H-[1]benzopyrano[3,4-C]pyridin- 5-ones useful for treating bronchospastic diseases” (Warner Lambert Company, priority 1982, dated 1983)

Key:
[1] = test system: bronchospasm (pilocarpine nitrate); assay: Inhibition of pilocarpine-induced bronchospasm in anesthetized dogs (pulmonary mechanics); format: in vivo, mongrel dogs; settings: for ED50: Canis lupus familiaris, iv, anesthetized dogs, cumulative i.v. doses, pilocarpine-induced bronchospasm, read-out: ID50 Bronchospasm; for Pulmonary Selectivity*: dogs, i.v., >1 indicates more potent as a bronchodilator than as an antisecretory agent
Method: (§1) In an additional testing procedure, mongrel dogs of either sex, 10.6 to 15.3 kg, are anesthetized with sodium pentobarbital, 30 mg/kg i.v. and then prepared for the monitoring of pulmonary mechanics. A Buxco pulmonary mechanics computer is used to calculate pulmonary resistance, dynamic compliance, and tidal volume from transpulmonary pressure and flow data. Respiratory rate, heart rate and mean arterial blood pressure are also monitored. The femoral vein is cannulated for the delivery of drugs. Pilocarpine nitrate (0.2 mg/kg/hr) is than infused to induce a bronchospasm and salivary flow. […] Salivary output is collected from a catheterized Wharton's duct at five minute intervals. After salivation has stabilized, 3 control collections are taken at 5 minute intervals followed by a series of cumulative i.v. doses of test compound (1, 3, 10, 30, 100, 300, 1000, 3000, and 10,000 μg/kg) that are injected every 5 minutes for 45 minutes. The percent inhibition of both the bronchospasm and salivation are calculated for each dose with a return to pre-pilocarpine resistance levels or cessation of salivation equal to a 100% inhibition.

[2] = test system: collapse on exposure to an aerosol of methacholine; assay: Anticholinergic test: prolongation of collapse time in conscious guinea pigs exposed to an aerosol of methacholine; format: in vivo; settings: guinea pig, 25 mg/kg intraperitoneally; 10 minutes methacholine aerosol; Control 1.9 to 2.0
Method: The compounds of the invention display anticholinergic properties when tested by the following procedure: Conscious guinea pigs, six at a time, are put into a sealed chamber and exposed for 10 minutes to an aerosol of methacholine. Untreated animals or those treated with vehicle will collapse in 1.9±0.1 minutes. Groups of animals are injected intraperitoneally with 25 mg/kg of test compound and exposed in the chamber under the same conditions. Compounds which prolong the collapse time past that of the control animals are considered active.

[3] = test system: salivation (pilocarpine nitrate); assay: Inhibition of pilocarpine-induced salivation in anesthetized dogs; format: in vivo, mongrel dogs; settings: Canis lupus familiaris, iv, cumulative i.v. doses, pilocarpine-induced salivary flow, read-out: ID50 Salivation
Method: as §1

| SMILES | ED50 [1] [mg/kg] | Pulmonary Selectivity* [1] | (Minutes Protection) [2] [min] | ED50 [3] [mg/kg] |
| --- | --- | --- | --- | --- |
| CCN(C)C(C)CN1CCc2c(c(=O)oc3cc(C)ccc23)C1 (centres unmarked) [H Me H Me Et, 3-[2-(Ethylmethylamino)propyl]-1,2,3,4-tetrahydro-8-methyl-5H-[1]benzopyrano[3,4-c]pyridin-5-one] | 0.15 | 2.2 | 8.8 | 0.336 |
| CCOc1cc2oc(=O)c3c(c2cc1OCC)CCN(CC(C)N(C)C)C3.Cl.Cl (centres unmarked) [EtO EtO H Me Me, 3-[2-(Dimethylamino)propyl]-1,2,3,4-tetrahydro-8,9-diethoxy-5H-[1]benzopyrano[3,4-c]pyridin-5-one dihydrochloride] | 0.147 | 2.1 | 7.3 | 0.303 |
| CCNC(C)CN1CCc2c(c(=O)oc3ccccc23)C1 (centres unmarked) [H H H Et H, 3-[2-(Ethylamino)propyl]-1,2,3,4-tetrahydro-5H-[1]benzopyrano[3,4-c]pyridin-5-one] | 0.21 | 6 | 10.0 | 1.23 |
| Cc1ccc2c3c(c(=O)oc2c1)CN(CC(C)N(C)C)CC3 (centres unmarked) [H Me H Me Me, 3-[2-(Dimethylamino)propyl]-1,2,3,4-tetrahydro-8-methyl-5H-[1]-benzopyrano[3,4-c]pyridin-5-one] | 0.114 | 3.7 | 10.0 | 0.421 |
| CCN(CC)C(C)CN1CCc2c(c(=O)oc3cc(OC)c(OC)cc23)C1.Cl.Cl (centres unmarked) [MeO MeO H Et Et, 3-[2-(Diethylamino)propyl]-1,2,3,4-tetrahydro-8,9-dimethoxy-5H-[1]benzopyrano[3,4-c]pyridin-5-one dihydrochloride] | 0.073 | 3.5 | 7.8 | 0.257 |
| CCN(CC)C(C)CN1CCc2c(c(=O)oc3ccccc23)C1 (centres unmarked) [H H H Et Et, 3-[2-(Diethylamino)propyl]-1,2,3,4-tetrahydro-5H-[1]benzopyrano[3,4-c]pyridin-5-one] | 0.336 | 7 | 10.0 | 2.31 |
| COc1cc2oc(=O)c3c(c2cc1OC)CCN(CC(C)N(C)C)C3.Cl.Cl (centres unmarked) [MeO MeO H Me Me, 3-[2-(Dimethylamino)propyl]-1,2,3,4-tetrahydro-8,9-dimethoxy-5H-[1]benzopyrano[3,4-c]pyridin-5-one dihydrochloride] | 0.098 | 4.5 | 5.2 | 0.441 |
| CCN(CC)C(C)CN1CCc2c(c(=O)oc3cc(C)ccc23)C1 (centres unmarked) [H Me H Et Et, 3-[2-(Diethylamino)propyl]-1,2,3,4-tetrahydro-8-methyl-5H-[1]benzopyrano[3,4-c]pyridin-5-one] | 0.111 | 4.6 | 6.6 | 0.51 |
